# Where two headings read alike, the source gives them in different places.
# What was measured:
# T. cruzi Epimastigotes = test: Activity against T. cruzi epimastigotes; assay type: cell-based, Trypanosoma cruzi
# T. cruzi trypomastigotes = test: Proliferation assay of T. cruzi trypomastigotes inside Human Osteoblasts; assay type: cell-based, Trypanosoma cruzi; details: 48 H treatment
# Description: IC50 is median inhibitory concentration. TI is therapeutic index. […] This example further illustrates positives effects of treatment with the present compounds. […] The negative control was treated with 1% DMSO. The positive control was treated with Amp B at […].
# [1] = test system: L. major Luciferase promastigotes; test: Antiparasitic activity in L. major Luciferase promastigotes; assay type: cell-based, Leishmania major; details: 72 hr
# Description: IC50 is median inhibitory concentration. TI is therapeutic index.
Compound,"Mammalian cells LD50 (μM) Raw 264.7 Macrophages (Raw 264.7 Macrophages; mouse, 48 h) [µM]","IC50 (T. cruzi trypomastigotes; Trypanosoma cruzi, Osteoblast) [µM]",further results
"CCOC(=O)c1c(NC(=O)c2ccc([N+](=O)[O-])s2)sc2c1CC(C)(C)NC2(C)C [RS2, ethyl 5,5,7,7-tetramethyl-2-(5-nitrothiophene-2-carboxamido)-4,5,6,7-tetrahydrothieno[2,3-c]pyridine-3-carboxylate]",~32,< 1.25,T. cruzi LD50 (μM) Epimastigotes (T. cruzi Epimastigotes): ~7.5 µM
"CCOC(=O)c1c(N)sc2c1CC(C)(C)NC2(C)C [RS1, Ethyl 2-amino-5,5,7,7-tetramethyl-4,5,6,7-tetrahydrothieno[2,3-C]pyridine-3-carboxylate]",,< 10,
"CCOC(=O)c1c(NC(=O)c2cccc(C(F)(F)F)c2F)sc2c1CC(C)(C)NC2(C)C [GP1-04, Ethyl 2-(2-fluoro-3-(trifluoromethyl)benzamido)-5,5,7,7-tetramethyl-4,5,6,7-tetrahydrothieno[2,3-c]pyridine-3-carboxylate]",17,,
"CCOC(=O)c1c(NC(=O)c2ccc(F)c(C(F)(F)F)c2)sc2c1CC(C)(C)NC2(C)C [GP1-05, Ethyl 2-(4-fluoro-3-(trifluoromethyl)benzamido)-5,5,7,7-tetramethyl-4,5,6,7-tetrahydrothieno[2,3-c]pyridine-3-carboxylate]",22,,
"CCOC(=O)c1c(NC(=O)c2cccc(C(F)(F)F)c2)sc2c1CC(C)(C)NC2(C)C [RS3, Ethyl 5,5,7,7-tetramethyl-2-(3-(trifluoromethyl)benzamido)-4,5,6,7-tetrahydro-thieno[2,3-c]pyridine-3-carboxylate]",>40,< 1.25,
"CCOC(=O)c1c(NC(=O)c2ccc(C(F)(F)F)cc2)sc2c1CC(C)(C)NC2(C)C [RS5, Ethyl 5,5,7,7-tetramethyl-2-(4-(trifluoromethyl)benzamido)-4,5,6,7-tetrahydrothieno[2,3-c]pyridine-3-carboxylate]",,7.5,
"CCOC(=O)c1c(NC(=O)c2c(F)c(F)c(F)c(F)c2F)sc2c1CC(C)(C)NC2(C)C [RS4, Ethyl 5,5,7,7-tetramethyl-2-(perfluorobenzamido)-4,5,6,7-tetrahydrothieno[2,3c]pyridine-3-carboxylate]",,,"L. major LD50 (μM) Promastigotes [1]: 0.671 µM; Mammalian cells LD50 (μM) Raw 264.7 Macrophages (Raw 264.7 Macrophages; macrophage cytotoxicity, text: intraperitoneal macrophages (IPΦ) treated for 48 hrs): ~15 µM; IC50 (T. cruzi trypomastigotes): < 0.156 µM"

# From US9988395B2, “Antiparasitic compositions and methods utilizing substituted 5,5,7,7-tetramethyl-4,5,6,7-tetrahydrothieno[2,3-C]pyridine derivatives” (THE BOARD OF REGENTS OF THE UNIVERSITY OF TEXAS SYSTEM, priority 2015, dated 2018)
